# Paper PMC9822072, “Synthesis and Structure–Activity Relationship of 2,6-Disubstituted Thiosemicarbazone Derivatives of Pyridine as Potential Antituberculosis Agents” (Materials, 2023)
# Test system: M. tuberculosis Spec. 210 (resistant strain isolated from TB patients)
# Experiment: Tuberculostatic activity, twofold serial microdilution with Alamar Blue
# Assay type: cell-based
# Details: Mycobacterium tuberculosis, 504 h, read-out: MIC Spec. 210
row,SMILES,MIC [µg/mL]
1,"NC(=NNC(=S)N1CCOCC1)c1cccc(N2CCCC2)n1 [Compound 4, N’-(Morpholine-4-Carbonothioyl)-6-(Pyrrolidin-1-Yl)Picolinohydrazonamide]",4
2,"NC(=NNC(=S)N1CCCC1)c1cccc(N2CCCC2)n1 [Compound 5, 6-(Pyrrolidin-1-Yl)-N’-(Pyrrolidine-1-Carbonothioyl)Picolinohydrazonamide]",1
3,"NC(=NNC(=S)N1CCOCC1)c1cccc(N2CCCCC2)n1 [Compound 6, N’-(Morpholine-4-Carbonothioyl)-6-(Piperidin-1-Yl)Picolinohydrazonamide]",1
4,"NC(=NNC(=S)N1CCCC1)c1cccc(N2CCCCC2)n1 [Compound 7, 6-(Piperidin-1-Yl)-N’-(Pyrrolidine-1-Carbonothioyl)Picolinohydrazonamide]",0.5
5,"NC(=NNC(=S)N1CCOCC1)c1cccc(Oc2ccccc2)n1 [Compound 8, N’-(Morpholine-4-Carbonothioyl)-6-Phenoxypicolinohydrazonamide]",4
6,"NC(=NNC(=S)N1CCCC1)c1cccc(Oc2ccccc2)n1 [Compound 9, 6-Phenoxy-N’-(Pyrrolidine-1-Carbonothioyl)Picolinohydrazonamide]",4
7,"NNC(=O)c1ccncc1 [INH, isoniazid, reference compound]",8
